This note sets out measurements from patent US10472341B2, “Bicyclic tetrahydrothiazepine derivatives useful for the treatment of neoplastic and/or infectious diseases” (APEIRON BIOLOGICS AG, priority 2015, dated 2019).

Molecules are shown by their SMILES. Read-outs that look alike come from different tables or passages of the source.

Assay [1] relates to aCD3/aCD28-stimulated human PBMCs. Briefly: Cytokine production in aCD3/aCD28 stimulated human PBMCs. Type of assay: cell-based. The following applies: PBMC, 18 h. The method, boiled down: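 Compound effects measured in buffy-coat PBMCs activated 18 h at 37° C by 1 μg/mL each of soluble anti-CD3 (OKT3) and anti-CD28 (28.2), 1e6 cells/mL. Cytokines in harvested supernatants read by MSD or HTRF.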

Assay [2] has as its system aCD3/aCD28-stimulated human CD4+-T-cells. Briefly: IL-2 production and activation markers in aCD3/aCD28 stimulated isolated human CD4+-T-cells. Format: cell-based. The note with it: IL-2 production at 3 μM compound. The protocol: • Buffy coat content was transferred to sterile plastic bottle and filled up to 480 ml with PBS, and distributed equally to 16×50 ml tubes (30 ml/tube) • Underlayed with ˜11 ml Lymphoprep and centrifuged 20 min (2200 rpm) • The interphase containing lymphocytes was taken off with transfer pipette, cells were washed twice with PBS and pooled to one tube to determine cell count (Coulter Diff ACT) Isolation of Immune Cell Subfractions from PBMCs by MACS • PBMCs were resuspended in MACS buffer (80 μl MACS-buffer/10^7 cells) and cells were isolated with Auto-MACS device using respective kits following manufacturer's recommendations TCR Stimulation and Measurement of T Cell Activation
Isolated T cells were plated in Xvivo medium at 1.5*10 ^5 cells per in 96 well culture plates and TCR-stimulated with anti-CD3/28 mAbs in the presence of compound as indicated. Cytokine production was determined at 24 h or 48 h following TCR stimulation in cell culture supernatants using commercially available ELISA kits (BD and eBioscience) as recommended by the manufacturer. T cell proliferation and CD25 expression (CD25-PC5 reagent purchased from Beckman Coulter) was determined by flow cytometry (Beckman-Coulter FC500) and analysed with Kaluza Software. For measurement of CD69 expression, isolated CD4 and CD8 T cells were plated in Xvivo medium at […] per in 96 well culture plates and TCR-stimulated with anti-CD3/28 mAbs in the presence of compound. CD69 expression was determined at 24 h following TCR stimulation by flow cytometry (CD4eF450, CD8APCeF780 and CD69-PC7 reagent purchased from eBioscience) and analysed with Kaluza Software.
Buffy coats were obtained from Austrian Red Cross, diluted 3 fold with PBS and layered onto an isotonic Ficoll separating solution d=1.077 g/m in 50 ml centrifuge tubes. The tubes were centrifuged at 914 g for 25 min at room temperature with the brakes off. The PBMC layer was removed and washed twice with ice-cold PBS. CD4 T cells were isolated using CD4 microbeads (Milteny) and the AutoMACS device following manufacturer's instructions.
Compound examples of the present invention were classified according to the following activity criteria and are listed in Table 4a: • Activity Class A: IL-2 production at 3 μM compound concentration >10 ng/mL • Activity Class B: IL-2 production at 3 μM compound concentration between 2-10 ng/mL • Activity Class C: IL-2 production at 3 μM compound concentration between 2-fold increase as compared to mean IL-2 production of stimulated cells in the absence of compounds and <2 ng/mL

The mark [3] stands for this setting: enhancement of IFN-γ production, read-out: Activity Class IFN-γ.
[4] abbreviates: enhancement of IL-2 production, read-out: Activity Class IL-2.

`CCCCNC(=O)c1cc2c(cc1F)SC[C@H](N)C(=O)N2Cc1ccc(OC(F)(F)F)cc1.Cl` [Example 5, (3R)-3-amino-N-butyl-8-fluoro-4-oxo-5-{[4-(trifluoromethoxy)phenyl]methyl}-2,3,4,5-tetrahydro-1,5-benzothiazepine-7-carboxamide hydrochloride]: the EC50 was 1.58 to 5.01 µM in assay [1] (setting [3]) and over 5.01 µM in assay [1] (setting [4]). Further, the “Activity Class CD4+” value in assay [2] is recorded as “B (IL-2 production at 3 μM compound concentration between 2-10 ng/mL)”.

Regarding `Cl.N[C@H]1CSc2ccc(C(=O)NCc3ccccc3)cc2N(Cc2ccc(OC(F)(F)F)cc2)C1=O` [Example 6, (3R)-3-amino-N-benzyl-4-oxo-5-{[4-(trifluoromethoxy)phenyl]methyl}-2,3,4,5-tetrahydro-1,5-benzothiazepine-7-carboxamide hydrochloride], the EC50 in assay [1] (setting [3]) was under 1.58 µM; in assay [1] (setting [4]) it was 1.58 to 5.01 µM. Besides, the “Activity Class CD4+” value in assay [2] is recorded as “B (IL-2 production at 3 μM compound concentration between 2-10 ng/mL)”.

Regarding `COc1ccc(CNC(=O)c2ccc3c(c2)N(Cc2ccc(OC(F)(F)F)cc2)C(=O)[C@@H](N)CS3)cc1.Cl` [Example 7, (3R)-3-amino-N-[(4-methoxyphenyl)methyl]-4-oxo-5-{[4-(trifluoromethoxy)-phenyl]methyl}-2,3,4,5-tetrahydro-1,5-benzothiazepine-7-carboxamide hydrochloride], the EC50 in assay [1] (setting [3]) is under 1.58 µM; in assay [1] (setting [4]) it was 1.58 to 5.01 µM. In addition, in assay [2], the “Activity Class CD4+” value is given as “B (IL-2 production at 3 μM compound concentration between 2-10 ng/mL)”.

Take `CCCCNC(=O)c1ccc2c(c1)N(Cc1cccc(OC(F)(F)F)c1)C(=O)[C@@H](N)CS2.Cl` [Example 9, (3R)-3-amino-N-butyl-4-oxo-5-{[3-(trifluoromethoxy)phenyl]methyl}-2,3,4,5-tetrahydro-1,5-benzothiazepine-7-carboxamide hydrochloride]: the EC50 in assay [1] (setting [3]) was 1.58 to 5.01 µM; in assay [1] (setting [4]), over 5.01 µM. Further, the “Activity Class CD4+” value in assay [2] was “C (IL-2 production at 3 μM compound concentration between 2-fold increase as compared to mean IL-2 production of stimulated cells in the absence of compounds and <2 ng/mL)”.

Take `CCCCNC(=O)c1ccc2c(c1)N(Cc1ccc(Cl)cc1)C(=O)[C@@H](N)CS2.Cl` [Example 10, (3R)-3-amino-N-butyl-5-[(4-chlorophenyl)methyl]-4-oxo-2,3,4,5-tetrahydro-1,5-benzothiazepine-7-carboxamide hydrochloride]: the EC50 in assay [1] (setting [3]) was 1.58 to 5.01 µM; in assay [1] (setting [4]), over 5.01 µM. In addition, in assay [2], the “Activity Class CD4+” value was “C (IL-2 production at 3 μM compound concentration between 2-fold increase as compared to mean IL-2 production of stimulated cells in the absence of compounds and <2 ng/mL)”.

As to `Cl.N[C@H]1CSc2ccc(C(=O)NCc3ccc(N4CCOCC4)cc3)cc2N(Cc2ccc(OC(F)(F)F)cc2)C1=O` [Example 11, (3R)-3-amino-N-{[4-(morpholin-4-yl)phenyl]methyl}-4-oxo-5-{[4-(trifluoromethoxy)-phenyl]methyl}-2,3,4,5-tetrahydro-1,5-benzothiazepine-7-carboxamide hydrochloride], the EC50 in assay [1] (setting [3]) and in assay [1] (setting [4]) was over 5.01 µM throughout. Further, in assay [2], the “Activity Class CD4+” value is “C (IL-2 production at 3 μM compound concentration between 2-fold increase as compared to mean IL-2 production of stimulated cells in the absence of compounds and <2 ng/mL)”.

`CC(C)(C)C(=O)NCCCNC(=O)c1ccc2c(c1)N(Cc1ccc(OC(F)(F)F)cc1)C(=O)[C@@H](N)CS2.Cl` [Example 12, N-(3-{[(3R)-3-amino-4-oxo-5-{[4-(trifluoromethoxy)phenyl]methyl}-2,3,4,5-tetrahydro-1,5-benzothiazepin-7-yl]formamido}propyl)-2,2-dimethylpropanamide hydrochloride]: the EC50 in assay [1] (setting [3]) and in assay [1] (setting [4]) was over 5.01 µM each time. Besides, the “Activity Class CD4+” value in assay [2] was “C (IL-2 production at 3 μM compound concentration between 2-fold increase as compared to mean IL-2 production of stimulated cells in the absence of compounds and <2 ng/mL)”.

Regarding `CNC(=O)c1ccc2c(c1)N(Cc1ccc(OC(F)(F)F)cc1)C(=O)[C@@H](N)CS2.Cl` [Example 17, (3R)-3-amino-N-methyl-4-oxo-5-{[4-(trifluoromethoxy)phenyl]methyl}-2,3,4,5-tetrahydro-1,5-benzothiazepine-7-carboxamide hydrochloride], in assay [1] (setting [4]), the EC50 was over 5.01 µM. Besides, the “Activity Class CD4+” value in assay [2] was “C (IL-2 production at 3 μM compound concentration between 2-fold increase as compared to mean IL-2 production of stimulated cells in the absence of compounds and <2 ng/mL)”.

For `CCNC(=O)c1ccc2c(c1)N(Cc1ccc(OC(F)(F)F)cc1)C(=O)[C@@H](N)CS2.Cl` [Example 18, (3R)-3-amino-N-ethyl-4-oxo-5-{[4-(trifluoromethoxy)phenyl]methyl}-2,3,4,5-tetrahydro-1,5-benzothiazepine-7-carboxamide hydrochloride], the EC50 was under 1.58 µM in assay [1] (setting [3]) and 1.58 to 5.01 µM in assay [1] (setting [4]). Besides, the “Activity Class CD4+” value in assay [2] is “C (IL-2 production at 3 μM compound concentration between 2-fold increase as compared to mean IL-2 production of stimulated cells in the absence of compounds and <2 ng/mL)”.

Turning to `CCCCNC(=O)c1ccc2c(c1)N(Cc1ccc(C#N)cc1)C(=O)[C@@H](N)CS2.Cl` [Example 21, (3R)-3-amino-N-butyl-5-[(4-cyanophenyl)methyl]-4-oxo-2,3,4,5-tetrahydro-1,5-benzothiazepine-7-carboxamide hydrochloride], the figures for the EC50 in assay [1] (setting [3]) and in assay [1] (setting [4]) were under 1.58 µM and over 5.01 µM, respectively. Moreover, the “Activity Class CD4+” value in assay [2] is “C (IL-2 production at 3 μM compound concentration between 2-fold increase as compared to mean IL-2 production of stimulated cells in the absence of compounds and <2 ng/mL)”.

In the case of `Cl.N[C@H]1CSc2ccc(C(=O)NCCCC(F)(F)F)cc2N(Cc2ccc(Cl)cc2)C1=O` [Example 22, (3R)-3-amino-5-[(4-chlorophenyl)methyl]-4-oxo-N-(4,4,4-trifluorobutyl)-2,3,4,5-tetrahydro-1,5-benzothiazepine-7-carboxamide hydrochloride], the EC50 in assay [1] (setting [3]) and in assay [1] (setting [4]) was 1.58 to 5.01 µM each time. The “Activity Class CD4+” value in assay [2] is recorded as “B (IL-2 production at 3 μM compound concentration between 2-10 ng/mL)”.

As for `Cl.N[C@H]1CSc2ccc(C(=O)NCC3CCOCC3)cc2N(Cc2ccc(Cl)cc2)C1=O` [Example 23, (3R)-3-amino-5-[(4-chlorophenyl)methyl]-N-(oxan-4-ylmethyl)-4-oxo-2,3,4,5-tetrahydro-1,5-benzothiazepine-7-carboxamide hydrochloride], the EC50 in assay [1] (setting [3]) is 1.58 to 5.01 µM; in assay [1] (setting [4]) it was over 5.01 µM. For the same compound, in assay [2], the “Activity Class CD4+” value is recorded as “B (IL-2 production at 3 μM compound concentration between 2-10 ng/mL)”.

With `Cl.Cl.N[C@H]1CSc2ccc(C(=O)Nc3cccnc3)cc2N(Cc2ccc(OC(F)(F)F)cc2)C1=O` [Example 25, (3R)-3-amino-4-oxo-N-(pyridin-3-yl)-5-{[4-(trifluoromethoxy)phenyl]methyl}-2,3,4,5-tetrahydro-1,5-benzothiazepine-7-carboxamide dihydrochloride], the EC50 in assay [1] (setting [3]) was over 5.01 µM; in assay [1] (setting [4]), 1.58 to 5.01 µM. Besides, in assay [2], the “Activity Class CD4+” value is “C (IL-2 production at 3 μM compound concentration between 2-fold increase as compared to mean IL-2 production of stimulated cells in the absence of compounds and <2 ng/mL)”.

In the case of `Cl.N[C@H]1CSc2ccc(C(=O)NCc3ccc(F)cc3)cc2N(Cc2ccc(Cl)cc2)C1=O` [Example 26, (3R)-3-amino-5-[(4-chlorophenyl)methyl]-N-[(4-fluorophenyl)methyl]-4-oxo-2,3,4,5-tetrahydro-1,5-benzothiazepine-7-carboxamide hydrochloride], the values for the EC50 in assay [1] (setting [3]) and in assay [1] (setting [4]) were under 1.58 µM and 1.58 to 5.01 µM, respectively. Besides, the “Activity Class CD4+” value in assay [2] is “B (IL-2 production at 3 μM compound concentration between 2-10 ng/mL)”.

With `COc1ccc([C@@H](C)NC(=O)c2ccc3c(c2)N(Cc2ccc(Cl)cc2)C(=O)[C@@H](N)CS3)cc1` [Example 27, (3R)-3-amino-5-[(4-chlorophenyl)methyl]-N-[(1R)-1-(4-methoxyphenyl)ethyl]-4-oxo-2,3,4,5-tetrahydro-1,5-benzothiazepine-7-carboxamide], the EC50 in assay [1] (setting [3]) was under 1.58 µM; in assay [1] (setting [4]) it was 1.58 to 5.01 µM. Moreover, in assay [2], the “Activity Class CD4+” value is recorded as “B (IL-2 production at 3 μM compound concentration between 2-10 ng/mL)”.
